Laboratory results published in article PMC5518309 (ChemMedChem, 2014).
Numbered stars: 1 amine (or outer) side, 2 acyl side, 3 side chain; on linkers, the order of the positions; unused ones are H or OH. Side chains are listed from the residue outwards. Peptide text beside a SMILES is read from it. * marks the point of attachment. γGlu = O=C(O)[C@H](CCC(=O)[*:2])N[*:1]; Palmitoyl = CCCCCCCCCCCCCCCC(=O)*; Lauroyl = CCCCCCCCCCCC(=O)*; Octanoyl = CCCCCCCC(=O)*; Propionyl = CCC(=O)*

Assays:
Format in all cases: cell-based
hY1R = biological target: T1, hY1R (Homo sapiens, UniProt P25929); assay: Inositol phosphate accumulation assay, hY1R; details: for Emax: read-out: hY1R Emax
T1 sequence (P25929 1-384): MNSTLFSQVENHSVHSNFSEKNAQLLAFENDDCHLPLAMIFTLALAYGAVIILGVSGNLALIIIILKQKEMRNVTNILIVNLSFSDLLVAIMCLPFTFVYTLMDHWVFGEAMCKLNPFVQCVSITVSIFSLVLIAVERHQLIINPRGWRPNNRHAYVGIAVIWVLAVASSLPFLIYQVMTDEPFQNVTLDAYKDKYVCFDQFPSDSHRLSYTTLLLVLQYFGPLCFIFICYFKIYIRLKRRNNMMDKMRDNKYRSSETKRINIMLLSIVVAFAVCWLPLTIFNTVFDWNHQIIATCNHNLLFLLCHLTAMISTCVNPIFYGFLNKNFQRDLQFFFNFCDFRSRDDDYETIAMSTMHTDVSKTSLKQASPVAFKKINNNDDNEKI

hY2R = biological target: T2, hY2R (Homo sapiens, UniProt P49146); assay: Inositol phosphate accumulation assay, hY2R; details: for Emax: read-out: hY2R Emax
T2 sequence (P49146 1-381): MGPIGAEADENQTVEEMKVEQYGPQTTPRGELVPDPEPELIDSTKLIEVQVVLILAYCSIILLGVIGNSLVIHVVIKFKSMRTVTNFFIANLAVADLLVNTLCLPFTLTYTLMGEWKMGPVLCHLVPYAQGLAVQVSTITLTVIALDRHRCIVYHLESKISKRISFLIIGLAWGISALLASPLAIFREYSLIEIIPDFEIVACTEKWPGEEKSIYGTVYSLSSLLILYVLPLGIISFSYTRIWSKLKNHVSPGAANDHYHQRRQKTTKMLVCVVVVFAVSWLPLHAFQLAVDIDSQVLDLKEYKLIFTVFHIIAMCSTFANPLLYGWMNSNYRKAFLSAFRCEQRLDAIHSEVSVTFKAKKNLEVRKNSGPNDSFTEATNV

hY4R = hY4R (Homo sapiens, UniProt P50391); assay: Inositol phosphate accumulation assay, hY4R; details: for Emax: read-out: hY4R Emax
hY4R, sequence (P50391 whole entry): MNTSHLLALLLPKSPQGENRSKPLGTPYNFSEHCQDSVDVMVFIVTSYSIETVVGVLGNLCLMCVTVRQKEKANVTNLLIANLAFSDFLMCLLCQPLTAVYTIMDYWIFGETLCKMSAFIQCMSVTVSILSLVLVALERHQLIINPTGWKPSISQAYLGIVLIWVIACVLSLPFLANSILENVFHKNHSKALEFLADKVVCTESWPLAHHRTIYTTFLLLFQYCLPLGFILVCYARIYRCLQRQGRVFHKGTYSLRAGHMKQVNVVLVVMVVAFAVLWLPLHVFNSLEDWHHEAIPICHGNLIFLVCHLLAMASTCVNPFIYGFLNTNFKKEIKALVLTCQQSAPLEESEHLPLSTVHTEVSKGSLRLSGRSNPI

hY5R = biological target: T3, hY5R (Homo sapiens, UniProt Q15761); assay: Inositol phosphate accumulation assay, hY5R; details: for Emax: read-out: hY5R Emax
T3 sequence (Q15761 1-445): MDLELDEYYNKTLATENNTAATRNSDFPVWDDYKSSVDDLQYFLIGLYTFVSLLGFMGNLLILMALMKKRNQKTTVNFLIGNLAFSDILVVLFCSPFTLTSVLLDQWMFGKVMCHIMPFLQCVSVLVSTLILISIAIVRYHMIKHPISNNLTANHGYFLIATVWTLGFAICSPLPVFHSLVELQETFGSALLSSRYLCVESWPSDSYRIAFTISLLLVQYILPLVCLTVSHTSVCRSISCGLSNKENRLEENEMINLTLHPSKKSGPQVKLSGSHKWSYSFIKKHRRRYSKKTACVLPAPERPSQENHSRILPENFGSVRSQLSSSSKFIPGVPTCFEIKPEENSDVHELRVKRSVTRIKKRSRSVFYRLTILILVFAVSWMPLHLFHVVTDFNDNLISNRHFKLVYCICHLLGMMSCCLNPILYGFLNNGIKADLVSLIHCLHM

Row | SMILES | EC50 (hY1R) [nM] | Emax (hY1R) [%] | EC50 (hY2R) [nM] | Emax (hY2R) [%] | EC50 (hY4R) [nM] | Emax (hY4R) [%] | EC50 (hY5R) [nM] | Emax (hY5R) [%]
1 | CCCCCCCC(=O)N[C@@H](CCC(=O)NCCCC[C@H](NC(=O)[C@H](CC(N)=O)NC(=O)[C@@H](NC(=O)[C@H](Cc1ccc(O)cc1)NC(=O)[C@H](CCCNC(=N)N)NC(=O)[C@H](CCCNC(=N)N)NC(=O)[C@H](CC(C)C)NC(=O)[C@H](CC(=O)O)NC(=O)[C@H](C)NC(=O)[C@H](C)NC(=O)[C@H](Cc1ccc(O)cc1)NC(=O)[C@H](CCC(N)=O)NC(=O)[C@H](C)NC(=O)[C@H](CCSC)NC(=O)[C@H](CCC(N)=O)NC(=O)[C@H](CCC(=O)O)NC(=O)[C@@H]1CCCN1C(=O)[C@@H](NC(=O)[C@H](C)NC(=O)[C@H](CC(N)=O)NC(=O)[C@H](CC(=O)O)NC(=O)CNC(=O)[C@@H]1CCCN1C(=O)[C@H](Cc1ccc(O)cc1)NC(=O)[C@@H](NC(=O)[C@@H]1CCCN1C(=O)[C@H](CCC(=O)O)NC(=O)[C@H](CC(C)C)NC(=O)[C@@H]1CCCN1)C(C)C)[C@@H](C)O)[C@@H](C)CC)C(=O)N[C@@H](CC(C)C)C(=O)N[C@H](C(=O)N[C@@H](CCCNC(=N)N)C(=O)N1CCC[C@H]1C(=O)N[C@@H](CCCNC(=N)N)C(=O)N[C@@H](Cc1ccc(O)cc1)C(N)=O)[C@@H](C)O)C(=O)O [16a, [K^30(E-Capr)]hPP2–36] (H-PLEPVYPGDNATPEQMAQYAADLRRYINK([γGlu-Octanoyl])LTRPRY-NH2) | > 1000 | 84 ± 6 | > 1000 | 85 ± 5 | 1.2 | 82 ± 4 | 386 | 75 ± 5
2 | CCCCCCCCCCCCCCCC(=O)N[C@@H](CCC(=O)NCCCC[C@H](NC(=O)[C@H](CC(N)=O)NC(=O)[C@@H](NC(=O)[C@H](Cc1ccc(O)cc1)NC(=O)[C@H](CCCNC(=N)N)NC(=O)[C@H](CCCNC(=N)N)NC(=O)[C@H](CC(C)C)NC(=O)[C@H](CC(=O)O)NC(=O)[C@H](C)NC(=O)[C@H](C)NC(=O)[C@H](Cc1ccc(O)cc1)NC(=O)[C@H](CCC(N)=O)NC(=O)[C@H](C)NC(=O)[C@H](CCSC)NC(=O)[C@H](CCC(N)=O)NC(=O)[C@H](CCC(=O)O)NC(=O)[C@@H]1CCCN1C(=O)[C@@H](NC(=O)[C@H](C)NC(=O)[C@H](CC(N)=O)NC(=O)[C@H](CC(=O)O)NC(=O)CNC(=O)[C@@H]1CCCN1C(=O)[C@H](Cc1ccc(O)cc1)NC(=O)[C@@H](NC(=O)[C@@H]1CCCN1C(=O)[C@H](CCC(=O)O)NC(=O)[C@H](CC(C)C)NC(=O)[C@@H]1CCCN1)C(C)C)[C@@H](C)O)[C@@H](C)CC)C(=O)N[C@@H](CC(C)C)C(=O)N[C@H](C(=O)N[C@@H](CCCNC(=N)N)C(=O)N1CCC[C@H]1C(=O)N[C@@H](CCCNC(=N)N)C(=O)N[C@@H](Cc1ccc(O)cc1)C(N)=O)[C@@H](C)O)C(=O)O [18a, [K^30(E-Pam)]hPP2–36] (H-PLEPVYPGDNATPEQMAQYAADLRRYINK([γGlu-Palmitoyl])LTRPRY-NH2) | 76.2 | 85 ± 3 | 21.1 | 92 ± 3 | 1.2 | 78 ± 4 | 1.6 | 75 ± 5

The next lines start with the values.

Row | EC50 (hY1R) [nM] | Emax (hY1R) [%] | EC50 (hY2R) [nM] | Emax (hY2R) [%] | EC50 (hY4R) [nM] | Emax (hY4R) [%] | EC50 (hY5R) [nM] | Emax (hY5R) [%] | SMILES
3 | > 1000 | 92 ± 4 | > 1000 | 88 ± 6 | 1.1 | 96 ± 6 | 21.9 | 83 ± 2 | CCC(=O)N[C@@H](CCC(=O)NCCCC[C@H](NC(=O)[C@H](C)NC(=O)[C@H](Cc1ccc(O)cc1)NC(=O)[C@H](CCC(N)=O)NC(=O)[C@H](C)NC(=O)[C@H](CCSC)NC(=O)[C@H](CCC(N)=O)NC(=O)[C@H](CCC(=O)O)NC(=O)[C@@H]1CCCN1C(=O)[C@@H](NC(=O)[C@H](C)NC(=O)[C@H](CC(N)=O)NC(=O)[C@H](CC(=O)O)NC(=O)CNC(=O)[C@@H]1CCCN1C(=O)[C@H](Cc1ccc(O)cc1)NC(=O)[C@@H](NC(=O)[C@@H]1CCCN1C(=O)[C@H](CCC(=O)O)NC(=O)[C@H](CC(C)C)NC(=O)[C@@H]1CCCN1)C(C)C)[C@@H](C)O)C(=O)N[C@@H](CC(=O)O)C(=O)N[C@@H](CC(C)C)C(=O)N[C@@H](CCCNC(=N)N)C(=O)N[C@@H](CCCNC(=N)N)C(=O)N[C@@H](Cc1ccc(O)cc1)C(=O)N[C@H](C(=O)N[C@@H](CC(N)=O)C(=O)N[C@@H](CCSC)C(=O)N[C@@H](CC(C)C)C(=O)N[C@H](C(=O)N[C@@H](CCCNC(=N)N)C(=O)N1CCC[C@H]1C(=O)N[C@@H](CCCNC(=N)N)C(=O)N[C@@H](Cc1ccc(O)cc1)C(N)=O)[C@@H](C)O)[C@@H](C)CC)C(=O)O [compound 9, [K^22(E-Prop)]hPP2–36] (H-PLEPVYPGDNATPEQMAQYAK([γGlu-Propionyl])DLRRYINMLTRPRY-NH2)
4 | > 1000 | 84 ± 4 | > 1000 | 88 ± 7 | 3.1 | 91 ± 4 | 26 | 84 ± 4 | CCCCCCCC(=O)N[C@@H](CCC(=O)NCCCC[C@H](NC(=O)[C@H](C)NC(=O)[C@H](Cc1ccc(O)cc1)NC(=O)[C@H](CCC(N)=O)NC(=O)[C@H](C)NC(=O)[C@H](CCSC)NC(=O)[C@H](CCC(N)=O)NC(=O)[C@H](CCC(=O)O)NC(=O)[C@@H]1CCCN1C(=O)[C@@H](NC(=O)[C@H](C)NC(=O)[C@H](CC(N)=O)NC(=O)[C@H](CC(=O)O)NC(=O)CNC(=O)[C@@H]1CCCN1C(=O)[C@H](Cc1ccc(O)cc1)NC(=O)[C@@H](NC(=O)[C@@H]1CCCN1C(=O)[C@H](CCC(=O)O)NC(=O)[C@H](CC(C)C)NC(=O)[C@@H]1CCCN1)C(C)C)[C@@H](C)O)C(=O)N[C@@H](CC(=O)O)C(=O)N[C@@H](CC(C)C)C(=O)N[C@@H](CCCNC(=N)N)C(=O)N[C@@H](CCCNC(=N)N)C(=O)N[C@@H](Cc1ccc(O)cc1)C(=O)N[C@H](C(=O)N[C@@H](CC(N)=O)C(=O)N[C@@H](CCSC)C(=O)N[C@@H](CC(C)C)C(=O)N[C@H](C(=O)N[C@@H](CCCNC(=N)N)C(=O)N1CCC[C@H]1C(=O)N[C@@H](CCCNC(=N)N)C(=O)N[C@@H](Cc1ccc(O)cc1)C(N)=O)[C@@H](C)O)[C@@H](C)CC)C(=O)O [compound 10, [K^22(E-Capr)]hPP2–36] (H-PLEPVYPGDNATPEQMAQYAK([γGlu-Octanoyl])DLRRYINMLTRPRY-NH2)
5 | > 1000 | 81 ± 4 | 296 | 98 ± 4 | 3.6 | 83 ± 5 | 38.8 | 81 ± 5 | CCCCCCCCCCCC(=O)N[C@@H](CCC(=O)NCCCC[C@H](NC(=O)[C@H](CC(N)=O)NC(=O)[C@@H](NC(=O)[C@H](Cc1ccc(O)cc1)NC(=O)[C@H](CCCNC(=N)N)NC(=O)[C@H](CCCNC(=N)N)NC(=O)[C@H](CC(C)C)NC(=O)[C@H](CC(=O)O)NC(=O)[C@H](C)NC(=O)[C@H](C)NC(=O)[C@H](Cc1ccc(O)cc1)NC(=O)[C@H](CCC(N)=O)NC(=O)[C@H](C)NC(=O)[C@H](CCSC)NC(=O)[C@H](CCC(N)=O)NC(=O)[C@H](CCC(=O)O)NC(=O)[C@@H]1CCCN1C(=O)[C@@H](NC(=O)[C@H](C)NC(=O)[C@H](CC(N)=O)NC(=O)[C@H](CC(=O)O)NC(=O)CNC(=O)[C@@H]1CCCN1C(=O)[C@H](Cc1ccc(O)cc1)NC(=O)[C@@H](NC(=O)[C@@H]1CCCN1C(=O)[C@H](CCC(=O)O)NC(=O)[C@H](CC(C)C)NC(=O)[C@@H]1CCCN1)C(C)C)[C@@H](C)O)[C@@H](C)CC)C(=O)N[C@@H](CC(C)C)C(=O)N[C@H](C(=O)N[C@@H](CCCNC(=N)N)C(=O)N1CCC[C@H]1C(=O)N[C@@H](CCCNC(=N)N)C(=O)N[C@@H](Cc1ccc(O)cc1)C(N)=O)[C@@H](C)O)C(=O)O [compound 17, [K^30(E-Laur)]hPP2–36] (H-PLEPVYPGDNATPEQMAQYAADLRRYINK([γGlu-Lauroyl])LTRPRY-NH2)
